In patent US10266537B2, “3-acetylenyl-pyrazole-pyrimidine derivative, and preparation method therefor and uses thereof” (Si Chuan University, priority 2015, dated 2019):
Where two headings read alike, the source gives them in different places.

Key:
Abl = Abl (Homo sapiens (Human), UniProt P00519); assay: Kinase inhibition assay (KinaseProfiler, 33P-ATP); type: biochemical
JAK2 = JAK2 (Homo sapiens (Human), UniProt O60674); assay: Kinase inhibition assay (KinaseProfiler, 33P-ATP); type: biochemical
RAMOS = assay: Cell proliferation inhibition assay (MTT); type: cell-based; conditions: Homo sapiens, read-out: Proliferation inhibitory activity IC50
Protocol: (§1) The cells were seeded in 96-well plates with 200 μL of cell suspension per well and incubated overnight in a cell culture medium with a cell concentration of 1 2×10^4 cells/mL. The next day, the supernatant was discarded (the suspension cell was centrifuged before it) and the cells were treated with gradient concentrations of the test compound, respectively. […] After 72 hours, add 20 μL of MTT reagent at a concentration of 5 mg/mL per well. After incubation for 2-4 h, the supernatant was discarded and 150 μL of DMSO was added to each well. […] Relative cell proliferation inhibition rate=([MUT]-[MUT])×100%/[MUT]. The experiment was repeated at least 3 times. Experimental data were expressed as mean, data statistics using t test, P<0.05 for the difference was statistically significant.

MDA-MB-468 = assay: Cell proliferation inhibition assay (MTT); type: cell-based; conditions: Homo sapiens, read-out: Proliferation inhibitory activity IC50
Protocol: as §1

SW1990 = assay: Cell proliferation inhibition assay (MTT); type: cell-based; conditions: Homo sapiens, read-out: Proliferation inhibitory activity IC50
Protocol: as §1

B-Raf(V600E) = B-Raf(V600E) (Homo sapiens (Human), UniProt P15056, V600E); assay: Kinase inhibition assay (KinaseProfiler, 33P-ATP); conditions: ATP at Km
EphA1(h) = EphA1(h) (Homo sapiens (Human), UniProt P21709); assay: Kinase inhibition assay (KinaseProfiler, 33P-ATP); type: biochemical; conditions: read-out: The percentage of the remaining active protein
HepG2 = assay: Cell proliferation inhibition assay (MTT); type: cell-based; conditions: Homo sapiens, 72 hours, read-out: Proliferation inhibitory activity IC50
Protocol: as §1

MEK1(h) = MEK1(h) (Homo sapiens (Human), UniProt Q02750); assay: Kinase inhibition assay (KinaseProfiler, 33P-ATP); conditions: read-out: The percentage of the remaining active protein
PDGFRα (D842V) = PDGFRα (D842V) (Homo sapiens (Human), UniProt P16234, D842V); assay: Kinase inhibition assay (KinaseProfiler, 33P-ATP); type: biochemical; conditions: PDGFRα(D842V)(h), read-out: The percentage of the remaining active protein
TrkB = TrkB (Homo sapiens (Human), UniProt Q16620); assay: Kinase inhibition assay (KinaseProfiler, 33P-ATP); type: biochemical; conditions: TrkB(h), read-out: The percentage of the remaining active protein
ALK2(h) = ALK2(h) (Homo sapiens (Human), UniProt Q04771); assay: Kinase inhibition assay (KinaseProfiler, 33P-ATP); type: biochemical; conditions: read-out: The percentage of the remaining active protein
CaMKIIδ(h) = CaMKIIδ(h) (Homo sapiens (Human), UniProt Q13557); assay: Kinase inhibition assay (KinaseProfiler, 33P-ATP); type: biochemical; conditions: read-out: The percentage of the remaining active protein
CK2α2(h) = CK2α2(h) (Homo sapiens (Human), UniProt P19784); assay: Kinase inhibition assay (KinaseProfiler, 33P-ATP); type: biochemical; conditions: read-out: The percentage of the remaining active protein
CLK2(h) = CLK2(h) (Homo sapiens (Human), UniProt P49760); assay: Kinase inhibition assay (KinaseProfiler, 33P-ATP); type: biochemical; conditions: read-out: The percentage of the remaining active protein
DCAMKL3(h) = DCAMKL3(h) (Homo sapiens (Human), UniProt Q9C098); assay: Kinase inhibition assay (KinaseProfiler, 33P-ATP); type: biochemical; conditions: read-out: The percentage of the remaining active protein
FGFR1(V561M)(h) = FGFR1(V561M)(h) (Homo sapiens (Human), UniProt P11362, V561M); assay: Kinase inhibition assay (KinaseProfiler, 33P-ATP); type: biochemical; conditions: read-out: The percentage of the remaining active protein
GRK5(h) = GRK5(h) (Homo sapiens (Human), UniProt P34947); assay: Kinase inhibition assay (KinaseProfiler, 33P-ATP); type: biochemical; conditions: read-out: The percentage of the remaining active protein
MAPK2(h) = MAPK2(h) (Homo sapiens (Human), UniProt P28482); assay: Kinase inhibition assay (KinaseProfiler, 33P-ATP); type: biochemical; conditions: read-out: The percentage of the remaining active protein
MAPKAP-K2(h) = MAPKAP-K2(h) (Homo sapiens (Human), UniProt P49137); assay: Kinase inhibition assay (KinaseProfiler, 33P-ATP); type: biochemical; conditions: read-out: The percentage of the remaining active protein
Met(D1246N)(h) = Met(D1246N)(h) (Homo sapiens (Human), UniProt P08581, D1246N); assay: Kinase inhibition assay (KinaseProfiler, 33P-ATP); type: biochemical; conditions: read-out: The percentage of the remaining active protein
MKK6(h) = MKK6(h) (Homo sapiens (Human), UniProt P52564); assay: Kinase inhibition assay (KinaseProfiler, 33P-ATP); type: biochemical; conditions: read-out: The percentage of the remaining active protein
MKK7β(h) = MKK7β(h) (Homo sapiens (Human), UniProt O14733); assay: Kinase inhibition assay (KinaseProfiler, 33P-ATP); type: biochemical; conditions: read-out: The percentage of the remaining active protein
MST4(h) = MST4(h) (Homo sapiens (Human), UniProt Q9P289); assay: Kinase inhibition assay (KinaseProfiler, 33P-ATP); type: biochemical; conditions: read-out: The percentage of the remaining active protein
NEK3(h) = NEK3(h) (Homo sapiens (Human), UniProt P51956); assay: Kinase inhibition assay (KinaseProfiler, 33P-ATP); type: biochemical; conditions: read-out: The percentage of the remaining active protein
PAK2(h) = PAK2(h) (Homo sapiens (Human), UniProt Q13177); assay: Kinase inhibition assay (KinaseProfiler, 33P-ATP); type: biochemical; conditions: read-out: The percentage of the remaining active protein
PAK4(h) = PAK4(h) (Homo sapiens (Human), UniProt O96013); assay: Kinase inhibition assay (KinaseProfiler, 33P-ATP); type: biochemical; conditions: read-out: The percentage of the remaining active protein
PKCγ(h) = PKCγ(h) (Homo sapiens (Human), UniProt P05129); assay: Kinase inhibition assay (KinaseProfiler, 33P-ATP); type: biochemical; conditions: read-out: The percentage of the remaining active protein
Rsk1(r) = Rsk1(r) (Rattus norvegicus (Rat), UniProt Q63531); assay: Kinase inhibition assay (KinaseProfiler, 33P-ATP); type: biochemical; conditions: read-out: The percentage of the remaining active protein
TLK2(h) = TLK2(h) (Homo sapiens (Human), UniProt Q86UE8); assay: Kinase inhibition assay (KinaseProfiler, 33P-ATP); type: biochemical; conditions: read-out: The percentage of the remaining active protein
TYK2(h) = TYK2(h) (Homo sapiens (Human), UniProt P29597); assay: Kinase inhibition assay (KinaseProfiler, 33P-ATP); type: biochemical; conditions: read-out: The percentage of the remaining active protein
VRK2(h) = VRK2(h) (Homo sapiens (Human), UniProt Q86Y07); assay: Kinase inhibition assay (KinaseProfiler, 33P-ATP); type: biochemical; conditions: read-out: The percentage of the remaining active protein
DNA-PK(h) = DNA-PK(h) (Homo sapiens (Human), UniProt P78527); assay: Kinase inhibition assay (KinaseProfiler, 33P-ATP); type: biochemical; conditions: read-out: The percentage of the remaining active protein
[1] = target: PI3 Kinase (p110d/p85a)(m) (Mus musculus (Mouse), UniProt O35904); assay: Kinase inhibition assay (KinaseProfiler, 33P-ATP); type: biochemical; conditions: read-out: The percentage of the remaining active protein

Chain of MEK1(h) (Q02750 whole entry): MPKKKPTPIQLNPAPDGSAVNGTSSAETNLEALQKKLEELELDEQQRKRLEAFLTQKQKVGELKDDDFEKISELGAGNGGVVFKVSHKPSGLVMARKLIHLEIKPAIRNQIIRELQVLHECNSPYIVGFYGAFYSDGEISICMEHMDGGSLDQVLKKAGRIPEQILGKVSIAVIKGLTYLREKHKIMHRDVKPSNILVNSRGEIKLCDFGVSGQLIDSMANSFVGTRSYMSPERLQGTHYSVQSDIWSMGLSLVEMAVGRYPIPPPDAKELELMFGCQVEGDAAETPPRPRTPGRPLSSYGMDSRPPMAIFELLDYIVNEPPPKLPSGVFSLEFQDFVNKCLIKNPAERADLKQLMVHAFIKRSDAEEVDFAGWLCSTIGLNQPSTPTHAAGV
Chain of Abl (P00519 whole entry): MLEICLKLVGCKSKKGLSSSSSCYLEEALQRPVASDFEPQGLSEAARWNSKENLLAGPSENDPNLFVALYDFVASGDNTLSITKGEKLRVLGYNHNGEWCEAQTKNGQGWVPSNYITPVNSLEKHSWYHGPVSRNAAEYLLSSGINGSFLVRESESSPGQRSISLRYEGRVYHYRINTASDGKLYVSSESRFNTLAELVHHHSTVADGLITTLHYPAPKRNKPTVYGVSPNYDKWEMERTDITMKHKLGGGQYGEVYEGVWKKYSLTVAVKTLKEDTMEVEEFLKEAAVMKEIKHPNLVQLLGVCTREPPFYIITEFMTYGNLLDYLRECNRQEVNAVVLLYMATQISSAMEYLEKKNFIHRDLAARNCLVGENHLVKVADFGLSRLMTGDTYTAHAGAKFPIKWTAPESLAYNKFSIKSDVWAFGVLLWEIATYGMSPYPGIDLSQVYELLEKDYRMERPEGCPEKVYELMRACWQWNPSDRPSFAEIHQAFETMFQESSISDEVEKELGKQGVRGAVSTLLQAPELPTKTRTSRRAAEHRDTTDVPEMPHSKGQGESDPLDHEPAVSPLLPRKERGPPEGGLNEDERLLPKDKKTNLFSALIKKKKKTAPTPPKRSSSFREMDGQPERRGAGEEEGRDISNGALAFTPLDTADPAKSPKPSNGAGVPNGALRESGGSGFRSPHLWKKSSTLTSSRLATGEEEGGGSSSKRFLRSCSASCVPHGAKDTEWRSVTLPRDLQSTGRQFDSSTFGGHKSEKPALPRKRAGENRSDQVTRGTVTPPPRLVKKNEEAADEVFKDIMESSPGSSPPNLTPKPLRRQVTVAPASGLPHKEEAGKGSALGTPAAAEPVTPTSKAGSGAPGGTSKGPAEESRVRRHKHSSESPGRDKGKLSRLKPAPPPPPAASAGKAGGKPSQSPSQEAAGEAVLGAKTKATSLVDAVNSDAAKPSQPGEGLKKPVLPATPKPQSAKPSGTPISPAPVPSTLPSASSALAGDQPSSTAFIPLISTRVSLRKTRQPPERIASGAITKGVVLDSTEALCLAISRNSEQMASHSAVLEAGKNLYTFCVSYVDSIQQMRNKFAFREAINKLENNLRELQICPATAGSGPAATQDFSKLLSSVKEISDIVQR
Chain of B-Raf(V600E) (P15056 whole entry V600E): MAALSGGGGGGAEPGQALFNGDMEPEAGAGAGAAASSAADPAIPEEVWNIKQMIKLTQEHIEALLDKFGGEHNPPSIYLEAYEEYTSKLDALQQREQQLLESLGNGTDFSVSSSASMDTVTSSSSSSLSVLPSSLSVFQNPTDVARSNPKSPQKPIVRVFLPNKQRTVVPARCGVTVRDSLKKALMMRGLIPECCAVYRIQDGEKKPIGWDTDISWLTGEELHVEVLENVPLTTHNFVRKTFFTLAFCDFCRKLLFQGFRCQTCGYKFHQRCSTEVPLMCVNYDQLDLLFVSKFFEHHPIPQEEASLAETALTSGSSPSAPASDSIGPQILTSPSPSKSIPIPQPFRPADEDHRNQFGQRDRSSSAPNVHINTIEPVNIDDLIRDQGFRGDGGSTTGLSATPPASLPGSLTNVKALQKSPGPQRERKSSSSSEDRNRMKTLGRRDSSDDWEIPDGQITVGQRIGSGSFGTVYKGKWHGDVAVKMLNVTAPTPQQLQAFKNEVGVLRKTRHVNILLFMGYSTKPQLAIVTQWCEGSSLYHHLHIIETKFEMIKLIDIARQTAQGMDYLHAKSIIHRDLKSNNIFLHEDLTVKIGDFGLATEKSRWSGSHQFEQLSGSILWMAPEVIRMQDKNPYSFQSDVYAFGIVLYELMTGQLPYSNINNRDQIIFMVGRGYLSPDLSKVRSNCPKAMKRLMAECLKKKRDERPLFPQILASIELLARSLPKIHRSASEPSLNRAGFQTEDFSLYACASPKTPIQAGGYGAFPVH
Chain of JAK2 (O60674 whole entry): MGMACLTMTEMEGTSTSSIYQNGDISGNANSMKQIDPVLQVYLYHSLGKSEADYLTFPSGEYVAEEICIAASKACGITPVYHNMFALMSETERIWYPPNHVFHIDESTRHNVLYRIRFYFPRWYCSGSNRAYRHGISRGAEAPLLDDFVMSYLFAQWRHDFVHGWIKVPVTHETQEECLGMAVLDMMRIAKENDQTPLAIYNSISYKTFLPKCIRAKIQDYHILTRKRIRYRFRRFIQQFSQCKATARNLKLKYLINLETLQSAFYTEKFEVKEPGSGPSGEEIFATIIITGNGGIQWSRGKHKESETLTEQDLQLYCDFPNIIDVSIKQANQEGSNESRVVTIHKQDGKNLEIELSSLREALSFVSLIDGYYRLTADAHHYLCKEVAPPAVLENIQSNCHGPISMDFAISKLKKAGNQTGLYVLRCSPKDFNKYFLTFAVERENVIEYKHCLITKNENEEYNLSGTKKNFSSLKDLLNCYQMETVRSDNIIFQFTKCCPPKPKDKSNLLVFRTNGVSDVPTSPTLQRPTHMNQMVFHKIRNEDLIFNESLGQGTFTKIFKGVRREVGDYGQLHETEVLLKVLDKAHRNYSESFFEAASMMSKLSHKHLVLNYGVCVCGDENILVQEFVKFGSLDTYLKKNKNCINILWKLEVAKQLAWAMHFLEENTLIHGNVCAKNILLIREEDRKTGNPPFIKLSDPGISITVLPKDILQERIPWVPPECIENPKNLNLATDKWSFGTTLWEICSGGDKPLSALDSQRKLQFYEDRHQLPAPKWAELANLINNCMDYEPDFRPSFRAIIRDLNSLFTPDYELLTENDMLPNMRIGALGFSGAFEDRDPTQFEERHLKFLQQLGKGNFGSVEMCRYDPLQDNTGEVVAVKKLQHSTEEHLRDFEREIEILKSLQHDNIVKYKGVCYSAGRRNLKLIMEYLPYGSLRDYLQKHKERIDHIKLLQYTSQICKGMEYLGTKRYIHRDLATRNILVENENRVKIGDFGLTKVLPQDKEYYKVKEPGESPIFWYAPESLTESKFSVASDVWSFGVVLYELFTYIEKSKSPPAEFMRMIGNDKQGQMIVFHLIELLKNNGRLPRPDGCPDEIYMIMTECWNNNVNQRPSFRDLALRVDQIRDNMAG
Chain of EphA1(h) (P21709 26-976): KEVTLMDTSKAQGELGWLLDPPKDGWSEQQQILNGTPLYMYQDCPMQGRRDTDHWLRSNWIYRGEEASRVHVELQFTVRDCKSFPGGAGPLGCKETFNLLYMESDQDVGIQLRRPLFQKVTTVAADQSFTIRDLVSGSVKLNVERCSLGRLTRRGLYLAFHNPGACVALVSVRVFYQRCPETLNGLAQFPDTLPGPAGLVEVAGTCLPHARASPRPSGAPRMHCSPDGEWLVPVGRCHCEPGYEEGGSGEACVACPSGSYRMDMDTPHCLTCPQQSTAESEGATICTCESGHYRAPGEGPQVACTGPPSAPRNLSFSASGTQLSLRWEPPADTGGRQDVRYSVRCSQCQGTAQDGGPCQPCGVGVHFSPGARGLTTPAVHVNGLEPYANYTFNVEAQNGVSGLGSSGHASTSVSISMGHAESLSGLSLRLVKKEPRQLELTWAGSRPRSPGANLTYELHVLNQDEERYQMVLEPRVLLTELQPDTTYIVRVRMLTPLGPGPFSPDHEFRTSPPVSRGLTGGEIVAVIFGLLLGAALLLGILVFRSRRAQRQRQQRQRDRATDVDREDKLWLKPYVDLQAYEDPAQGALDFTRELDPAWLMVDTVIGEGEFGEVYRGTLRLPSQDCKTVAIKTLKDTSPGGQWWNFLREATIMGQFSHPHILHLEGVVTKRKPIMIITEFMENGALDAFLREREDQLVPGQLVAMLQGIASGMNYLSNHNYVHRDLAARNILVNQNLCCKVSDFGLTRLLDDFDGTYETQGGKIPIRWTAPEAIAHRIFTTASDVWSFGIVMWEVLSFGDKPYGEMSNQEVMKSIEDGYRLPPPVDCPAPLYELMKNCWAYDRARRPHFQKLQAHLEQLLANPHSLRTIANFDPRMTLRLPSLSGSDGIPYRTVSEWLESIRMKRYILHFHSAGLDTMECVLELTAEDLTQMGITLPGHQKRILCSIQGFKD
Chain of MAPK2(h) (P28482 whole entry): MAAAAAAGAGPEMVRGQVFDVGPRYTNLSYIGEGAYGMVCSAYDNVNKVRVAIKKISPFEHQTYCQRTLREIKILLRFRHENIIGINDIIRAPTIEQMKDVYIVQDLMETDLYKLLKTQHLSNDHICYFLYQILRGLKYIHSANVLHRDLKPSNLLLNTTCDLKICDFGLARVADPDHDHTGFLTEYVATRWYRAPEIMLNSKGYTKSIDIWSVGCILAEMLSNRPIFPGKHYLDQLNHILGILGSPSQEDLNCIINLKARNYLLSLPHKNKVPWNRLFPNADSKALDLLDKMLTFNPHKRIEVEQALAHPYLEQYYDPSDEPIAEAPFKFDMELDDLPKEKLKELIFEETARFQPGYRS
Chain of MKK6(h) (P52564 whole entry): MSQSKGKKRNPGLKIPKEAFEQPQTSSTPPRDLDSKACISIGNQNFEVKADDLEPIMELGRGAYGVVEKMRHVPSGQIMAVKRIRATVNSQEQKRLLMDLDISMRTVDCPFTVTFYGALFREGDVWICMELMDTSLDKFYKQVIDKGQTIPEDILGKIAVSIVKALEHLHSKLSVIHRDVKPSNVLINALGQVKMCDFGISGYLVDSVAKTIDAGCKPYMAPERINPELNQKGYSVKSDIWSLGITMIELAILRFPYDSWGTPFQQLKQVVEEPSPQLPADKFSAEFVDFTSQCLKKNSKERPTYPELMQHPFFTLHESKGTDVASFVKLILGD

SMILES: CCn1nc(C#Cc2cc(C(=O)Nc3ccc(CN4CCN(C)CC4)c(C(F)(F)F)c3)ccc2C)c2c(N)ncnc21 [Compound 3]
- IC50 (Abl; Abl, ATP at Km): < 0.001 µM
- IC50 (JAK2; JAK2, ATP at Km): 2.91 µM
- IC50 (RAMOS; Ramos, 72 h): ~10 µM
- IC50 (MDA-MB-468; MDA-MB-468, 72 h): 4.48 µM
- IC50 (SW1990; SW1990, 72 h): 0.356 µM
- IC50 (B-Raf(V600E)): 0.015 µM

SMILES: Cc1ccc(NC(=O)c2cccc(C(F)(F)F)c2)cc1C#Cc1nn(C2CCN(C)CC2)c2ncnc(N)c12 [Compound 31]
- remaining activity at 10 µM (EphA1(h); compound at 10 μM): 1%
- IC50 (HepG2): 6.17 µM
- IC50 (MDA-MB-468; MDA-MB-468, MTT, 72 hours): 3.22 µM
- IC50 (SW1990; SW1990, MTT, 72 hours): 0.206 µM
- IC50 (B-Raf(V600E)): 0.005 µM
- remaining activity at 10 µM (MEK1(h)): 52%

SMILES: Cc1ccc(NC(=O)c2ccc(C)c(C(F)(F)F)c2)cc1C#Cc1nn([C@H]2CC[C@H](O)CC2)c2ncnc(N)c12 [Compound 93]
- remaining activity at 10 µM (Abl; Abl(h), 10 μM, read-out: The percentage of the remaining active protein): -3%
- remaining activity at 10 µM (JAK2; JAK2(h), 10 μM, read-out: The percentage of the remaining active protein): 64%
- remaining activity at 10 µM (EphA1(h); 10 μM): 1%
- remaining activity at 10 µM (PDGFRα (D842V)): 0%
- remaining activity at 10 µM (TrkB): 4%
- IC50 (RAMOS; RAMOS, MTT, 72 hours): ~10 µM
- IC50 (HepG2): ~10 µM
- remaining activity at 10 µM (ALK2(h)): 77%
- remaining activity at 10 µM (CaMKIIδ(h)): 89%
- remaining activity at 10 µM (CK2α2(h)): 92%
- remaining activity at 10 µM (CLK2(h)): 47%
- remaining activity at 10 µM (DCAMKL3(h)): 101%
- remaining activity at 10 µM (FGFR1(V561M)(h)): 40%
- remaining activity at 10 µM (GRK5(h)): 99%
- remaining activity at 10 µM (MAPK2(h)): 108%
- remaining activity at 10 µM (MAPKAP-K2(h)): 104%
- remaining activity at 10 µM (Met(D1246N)(h)): 103%
- remaining activity at 10 µM (MKK6(h)): 43%
- remaining activity at 10 µM (MKK7β(h)): 70%
- remaining activity at 10 µM (MST4(h)): 73%
- remaining activity at 10 µM (NEK3(h)): 102%
- remaining activity at 10 µM (PAK2(h)): 68%
- remaining activity at 10 µM (PAK4(h)): 88%
- remaining activity at 10 µM (PKCγ(h)): 90%
- remaining activity at 10 µM (Rsk1(r)): 20%
- remaining activity at 10 µM (TLK2(h)): 93%
- remaining activity at 10 µM (TYK2(h)): 36%
- remaining activity at 10 µM (VRK2(h)): 85%
- remaining activity at 10 µM (DNA-PK(h)): 94%
- remaining activity at 10 µM [1]: 78%
- remaining activity at 10 µM (MEK1(h)): 34%
